Counter-ions that a name gives are not always drawn. Like-named read-outs stand apart in the source and are kept apart here.
Columns and labels:
[1] = test system: Sonic hedgehog (Shh) signaling; assay: Cultured cell based Sonic hedgehog (Shh) signaling assay, luciferase reporter
Experimental: A library of drugs was previously tested in humans for agents that antagonize Hedgehog signaling. […] The assays used for the screen for Hh pathway antagonists proceeded essentially as described in reference 5. Briefly, each candidate compound was added at 10 uM to a cultured cell based Sonic hedgehog (Shh) signaling assay in high through-put format. This assay utilized cells with a stably integrated firefly luciferase reporter that is responsive to ShhN signaling. These cells also contain a stably integrated, constitutively expressed Renila luciferase gene that can be used for normalization of response to Shh, and used also to monitor cell health.

AT6.3 metastasis model = assay: AT6.3 Dunning prostate cancer metastasis model, survival; assay type: in vivo, mice; details: cyclopamine comparator, dose not given
22RV1 xenografts = assay: 22RV1 human prostate cancer xenografts in athymic mice, tumor growth; assay type: in vivo; details: itraconazole 37.5 mg/kg
[2] = Hh pathway inhibition, cells with ShhN-responsive firefly luciferase reporter, normalized to Renila luciferase, titration of 10 uM hits, read-out: IC50

Structure (SMILES) | IC50 [1, 2] [nM] | other results
Nc1ncn([C@@H]2O[C@H](CO)[C@@H](O)[C@H]2O)c(=O)n1 [5-AZACYTIDINE] | 1000 to 3000 | 
c1cc(CN2CCCCC2)cc(OCCCNc2nc3ccccc3s2)c1 [Zolantidine] | 1000 to 3000 | 
CN(C)CCC=C1c2ccccc2CCc2ccccc21 [Amitriptyline] | 1000 to 3000 | 
CCOC(=O)NC1=C(N2CC2)C(=O)C(NC(=O)OCC)=C(N2CC2)C1=O [Diaziquone] | 300 to 1000 | 
CC(=O)Oc1ccc2c(c1)CC[C@@H]1[C@@H]2CC[C@]2(C)[C@@H](O)CC[C@@H]12 [ESTRADIOL ACETATE] | 1000 to 3000 | 
OCCOCCN1CCN(C(c2ccccc2)c2ccc(Cl)cc2)CC1 (centres unmarked) [Hydroxyzine] | 300 to 1000 | 
Cc1ccc2c(Cl)cc(Cl)c(O)c2n1 [Chlorquinaldol, 5,7-Dichloro-2-methyl-8-quinolinol] | 3000 | 
CC[C@@H](C(=O)[C@@H](C)[C@@H](O)[C@H](C)[C@@H]1O[C@@H]([C@@H](CC)C(=O)O)CC[C@@H]1C)[C@H]1O[C@]2(C=C[C@@H](O)[C@]3(CC[C@@](C)([C@H]4CC[C@](O)(CC)[C@H](C)O4)O3)O2)[C@H](C)C[C@@H]1C [SALINOMYCIN, SODIUM] | < 100 | 
CN(C)CCCN1c2ccccc2CCc2ccccc21 [Imipramine] | 1000 to 3000 | 
CC1=C2C[C@H]3[C@@H](CC=C4C[C@@H](O)CC[C@@]43C)[C@@H]2CC[C@]12O[C@@H]1C[C@H](C)CN[C@H]1[C@H]2C [Cyclopamine] |  | IC50 [1]: 300 to 1000 nM; survival (AT6.3 metastasis model): extending survival
CN1CCN(C2=Nc3ccccc3Sc3ccc(Cl)cc32)CC1 [Clothiapine] | 1000 to 3000 | 
CC[C@]1(O)C[C@@H]2CN(CCc3c([nH]c4ccccc34)[C@@](C(=O)OC)(c3cc4c(cc3OC)N(C)[C@H]3[C@@](O)(C(N)=O)[C@H](O)[C@]5(CC)C=CCN6CC[C@]43[C@@H]65)C2)C1 [Vindesine] | < 100 | 
CN1CCC(=C2c3ccccc3Sc3ccccc32)CC1 [PIMETHIXENE MALEATE] | 300 to 1000 | 
CN(C)CCCN1c2ccccc2Sc2ccccc21 [PROMAZINE HYDROCHLORIDE] | 1000 to 3000 | 
CC(CN(C)C)CN1c2ccccc2CCc2ccccc21 (centres unmarked) [TRIMIPRAMINE MALEATE] | 1000 to 3000 | 
CC[C@]1(O)C[C@H]2CN(CCc3c([nH]c4ccccc34)[C@@](C(=O)OC)(c3cc4c(cc3OC)N(C=O)[C@H]3[C@@](O)(C(=O)OC)[C@H](OC(C)=O)[C@]5(CC)C=CCN6CC[C@]43[C@@H]65)C2)C1 [Vincristine sulfate] | < 100 | 
CN1CCN(C2=Nc3ccccc3Oc3ccc(Cl)cc32)CC1 [LOXAPINE SUCCINATE] | 100 to 300 | 

Structure (SMILES) | IC50 [1, 2] [nM] | other results
COc1cc2c(c(OC)c1OC)-c1ccc(=O)c(O)cc1[C@@H](NC(C)=O)CC2 [COLCHICEINE] |  | IC50 [1]: 300 to 1000 nM
Nc1ccc(S(=O)(=O)Nc2cnc3ccccc3n2)cc1 [SULFAQUINOXALINE SODIUM] | 300 to 1000 | 
C[C@@H]1C[C@@H]([C@H](O)CC2CC(=O)NC(=O)C2)C(=O)[C@@H](C)C1 [Cycloheximide] |  | IC50 [1]: 300 to 1000 nM
CC12CCC(CC1)C(C)(C)O2 [Eucalyptol] | 300 to 1000 | 
O=C(c1ccc(OCCN2CCCCC2)cc1)c1c(-c2ccc(O)cc2)sc2cc(O)ccc12 [Raloxifene hydrochloride] | 1000 to 3000 | 
C[C@H]1[C@@H](O)O[C@@H]2O[C@@]3(C)CC[C@H]4[C@H](C)CC[C@@H]1[C@@]24OO3 [DIHYDROARTEMISIMIN] | 1000 to 3000 | 
CC(CN1c2ccccc2Sc2ccccc21)N(C)C (centres unmarked) [PROMETHAZINE HYDROCHLORIDE] | 300 to 1000 | 
COc1ccc(C[C@H]2NC[C@H](O)[C@H]2OC(C)=O)cc1 [Anisomycin] | < 100 | 
CC[C@H]1/C=C/C=C/C[C@@H](C)[C@H](O)[C@@](C)(O)C(=O)[C@@H](C)[C@H](O)[C@@H](C)C(=O)[C@@H](C)[C@H](O)[C@@H](C)/C=C/C(=O)O[C@@H]2[C@H](C)[C@H](CC1)O[C@]1(CC[C@H](C)[C@H](C[C@@H](C)O)O1)[C@H]2C [OLIGOMYCIN] | < 100 | 
CCC(C)n1ncn(-c2ccc(N3CCN(c4ccc(OCC5COC(Cn6cncn6)(c6ccc(Cl)cc6Cl)O5)cc4)CC3)cc2)c1=O (racemic) [Itraconazole, (±)-cis-4-[4-[4-[4-[[2-(2,4-dichlorophenyl)-2-(1H-1,2,4-triazol-1-yl-methyl)-1,3-dioxolan-4-yl)methoxy]phenyl]-1-piperazinyl]phenyl]-2,4-dihydro-2-(1-methylpropyl)-3H-1,2,4-triazol-3-one] | 300 | tumor volume change (22RV1 xenografts): −100 % volume
CCC1=C[C@@H]2CN(C1)Cc1c([nH]c3ccccc13)[C@@](C(=O)OC)(c1cc3c(cc1OC)N(C)[C@H]1[C@@](O)(C(=O)OC)[C@H](OC(C)=O)[C@]4(CC)C=CCN5CC[C@]31[C@@H]54)C2 [Vinorelbine tartrate] | < 100 | 
CC(COc1ccccc1)N(CCCl)Cc1ccccc1 (centres unmarked) [PHENOXYBENZAMINE HYDROCHLORIDE] | 1000 to 3000 | 
CC[C@]1(O)C[C@@H]2CN(CCc3c([nH]c4ccccc34)[C@@](C(=O)OC)(c3cc4c(cc3OC)N(C)[C@H]3[C@@](O)(C(=O)OC)[C@H](OC(C)=O)[C@]5(CC)C=CCN6CC[C@]43[C@@H]65)C2)C1 [Vinblastine sulfate] | 300 to 1000 | 
C=C1C(=O)O[C@H]2C[C@@H]1C(OC(C)=O)C/C(C)=C/CC/C(C)=C/CC[C@@]2(C)O (some centres unmarked) [CRASSIN ACETATE] | 1000 to 3000 | 
C=C(C)[C@H]1Cc2c(ccc3c2O[C@@H]2COc4cc(OC)c(OC)cc4[C@@H]2C3=O)O1 [ROTENONE] |  | IC50 [1]: 1000 to 3000 nM
Cc1cc(NS(=O)(=O)c2ccc(N)cc2)nc(C)n1 [Sulfisomidine] | 300 to 1000 | 
